Values joined by “and” are separate entries in the source; they are usually repeats but may differ in a detail not shown here. Equal values may be shown once. Where a name gives a salt, the structure may show the parent alone.
Columns and labels:
Format in all cases: in vivo, SD rats
[1] = Weight monitoring of MCAO rats, oral administration (Example 21); settings: gavage 4 mg/kg twice per day; for Weight D 0: D 0, group mean; for Weight D 4: D 4, group mean; for Weight D 7: D 7, group mean; for Weight D 11: D 11, group mean; for Weight D 14: D 14, group mean; for Weight D 18: D 18, group mean; for Weight D 21: D 21, group mean; for Weight D 25: D 25, group mean; for Weight D 28: D 28, group mean
Method: Administration route: gavage administration; Dosage: 4 mg/kg body weight, twice per day; Administration time: gavage administration twice in the morning and evening per day (administered immediately after modeling). A rat model of middle cerebral artery ischemia/reperfusion (MCAO/R) was created using the suture method. […] After surgical exposure of the carotid artery, suture was performed without ischemia-reperfusion injury; • (3) Treatment group 1: MCAO model+[…] citrate drug treatment group; • (4) Treatment group 2: MCAO model+Sildenafil citrate drug treatment group; […]

[2] = system: MCAO rats; test: Neurological deficits (mNSS) score in MCAO rats, oral administration (Example 21); design: scale not given here; settings: gavage 4 mg/kg twice per day, one value per rat (30 per group)
Method: (§1) Administration route: gavage administration;
Dosage: 4 mg/kg body weight, twice per day;
Administration time: gavage administration twice in the morning and evening per day (administered immediately after modeling).
A rat model of middle cerebral artery ischemia/reperfusion (MCAO/R) was created using the suture method.
Scores were evaluated using the mNSS rat neurological deficit scoring method. The neurological deficits of the experimental rats were evaluated on 14 days after modeling. • ?

[3] = system: MCAO rats; test: Morris water maze experiment in MCAO rats, oral administration (Example 21); settings: gavage 4 mg/kg twice per day, 14 days water maze test
Method: Morris water maze experiment: testing the learning and memory abilities of rats.
The Morris water maze experiment is conducted continuously for 6 days each time, with training conducted for the first 5 days and testing conducted on 6th day.
For each of the tests, the rats were trained four times a day at a fixed time period for the first five days (once in the first, second, third, and fourth quadrants respectively). At the beginning of the training, a platform was placed in the first quadrant, and from any starting points of the four quadrants on the pool wall, the rats were placed into the pool, facing the pool wall. The camera system records the time when the rats found the platform and their swimming path. Four training sessions involved placing rats into water from four different starting points. If the rat finds the platform or cannot find it within 60 seconds, the experimenter will guide it to the platform, rest on the platform for 10 seconds, and then proceed to the next experiment.
The rats were removed from the platform, dried with a soft cloth, and put back into the cage. Afterwards, the next experiment on the rat was performed until the numbered animals had finished swimming, and then the next set of experiments was conducted.
This experiment was conducted on the 14th day after administration. […]

[4] = system: ischemic stroke model rats; test: Neurological function (behavioral) score, ischemic stroke model rats, intravenous administration (Example 22); design: scale not given here; settings: 10 mg/kg iv qd 7 d, x ± s, n = 10
Text: (§2) On the day of the experiment, the rat was anesthetized with isoflurane gas and placed in a supine position for fixation. The skin was cut along the midline of the neck to expose the right common carotid artery. The nerves and fascia around the blood vessels from the common carotid artery bifurcation to the base of the skull were carefully removed, and the external and internal carotid arteries were separated sequentially. The MCAO suture was inserted from the free end of the external carotid artery, and the nylon suture was introduced into the internal carotid artery from the distal end of the external carotid artery. It was inserted into the Willis ring of the middle cerebral artery to effectively block the middle cerebral artery. The length of the inserted suture was 18-20 mm away from the bifurcation of the common carotid artery. Then the free end of the external carotid artery was ligated along with the endovascular suture to prevent bleeding. […] Animals were kept in cages. After 2 hours of embolization, then reperfusion, according to the scoring criteria in the attached table, the degree of neurological damage in the animals was scored using a blind method. Those with significant neurological deficits (>8 points) were considered successful in modeling. • ? Grouping and administration The animals successfully modeled were randomly divided into three groups based on their scores, namely the model control group, compound 1 AD group ([…] citrate group) 10 mg/kg, and compound 2 XD group (Sildenafil citrate group) 10 mg/kg, with 10 animals in each group. […] The endpoint of the experiment was 14 days after administration, and the dosage is detailed in the table below. This experiment was administered intravenously with a dosage of 10 mg/kg and a volume of 5 mL/kg, once per day for consecutive 7 days. Score before treatment, 3 days after treatment, 7 days after treatment, and 14 days after treatment.

[5] = system: ischemic stroke model rats; test: Cerebral infarction range (TTC), ischemic stroke model rats, intravenous administration (Example 22); settings: 10 mg/kg iv qd 7 d
Text: as §2, with “cages.” for “cages. After 2 hours of embolization, then reperfusion, according to the scoring criteria in the attached table, the degree of neurological damage in the animals was scored using a blind method. Those with significant neurological deficits (>8 points) were considered successful in modeling. • ? Grouping and administration”, “At the end of the experiment, the brain tissue of the rats was collected by bloodletting” for “Score before treatment, 3 days after treatment, 7 days after treatment,”, “frozen in a -20° C. freezer, then are sliced with a thickness of 2 mm per slice. The brain tissue slices were placed in a 2% red tetrazolium (TTC) solution and incubated at 37° C. for 5 minutes. The infarcted tissue appeared white, while the non-infarcted tissue appeared red.” for “14 days after treatment.”

[6] = system: MCAO rats; test: Neurological function (behavioral) score in MCAO rats, oral administration (Example 23); settings: gavage 8 mg/kg twice a day; after 3, 7 and 14 days administration
Method: as §1
(§3) Dosage: 8 mg/kg body weight, twice a day;
(§4) Administration time: gavage administration twice a day in the morning and evening (administered immediately after modeling).
(§5) A rat model of middle cerebral artery ischemia/reperfusion (MCAO/R) was created using suture-occluded method.
After 2 hours of embolization, then reperfusion, according to the scoring criteria in the attached table, the degree of neurological damage in the animals was scored using a blind method. Those with significant neurological deficits (>8 points) were considered successful in modeling.
(§6) The successfully modeled rats were randomly divided into 4 groups based on their scores, with an average of 20 rats in each group.
Neurological function score: evaluation was conducted before treatment, 3 days, 7 days, and 14 days after treatment.

[7] = system: MCAO rats; test: Cerebral infarction range (TTC) in MCAO rats, oral administration (Example 23); settings: gavage 8 mg/kg*2, after 14 days
Method: as §1, §3, §4, §5, §6
At the end of the experiment, the brain tissue of the rats was collected by bloodletting and frozen in a −20° C. freezer, and then is sliced into a thickness of 2 mm per slice. The brain tissue slices were placed in a 2% red tetrazolium (TTC) solution and incubated at 37° C. for 5 minutes. The infarcted tissue appeared white, while the non-infarcted tissue appeared red. Image J software was used to measure the area of cerebral infarction and the percentage of infarct area to the total brain area was calculated.

SMILES | Weight D 0 [1] [g] | Weight D 4 [1] [g] | Weight D 7 [1] [g] | Weight D 11 [1] [g] | Weight D 14 [1] [g] | Weight D 18 [1] [g] | Weight D 21 [1] [g] | Weight D 25 [1] [g] | Weight D 28 [1] [g] | Score for neurological deficits (mNSS) after 14 days of administration, individual rats [2] | average latency period, Morris water maze [3] [s] | behavioral score, 3 days after medication ([4]; 3 days after medication) | behavioral score, 7 days after medication ([4]; 7 days after medication) | behavioral score, 14 days after medication ([4]; 14 days after medication) | behavioral score, Before medication ([4]; before medication) | Total cerebral infarction % ([5]; 14 days after administration, x ± s, n = 10) [%] | Improvement rate % of cerebral infarction range ([5]; 14 days, versus model control group) [%] | behavioral scores compared with the model control group [6] | Improvement rate % of cerebral infarction range ([7]; versus model control group) [%] | Total cerebral infarction % ([7]; x ± s, n = 20) [%]
CCCc1nn(C)c2c(=O)[nH]c(-c3cc(S(=O)(=O)N4CCN(C)CC4)ccc3OCC)nc12 [Sildenafil citrate] | 297.7 | 251.4 | 249.0 | 266.9 | 282.4 | 307.6 | 318.3 | 339.6 | 345.9 | 8 (10×) and 9 (8×) and 7 (7×) and 10 (3×) and 5 and 6 | 16.88 | 7.4 ± 1.4 | 6.1 ± 1.7 | 4.9 ± 1.7 | 9.6 ± 0.5 | 21.5 ± 8.6 | 14.0 |  |  | 
CCCc1nn(C)c2c(=O)[nH]c(-c3cc(S(=O)(=O)N4C[C@@H](C)N[C@@H](C)C4)ccc3OCC)nc12 [Aildenafil, 1-[3-(6,7-dihydro-1-methyl-7-oxy-3-n-propyl-1H-pyrazolo[4,3-d]pyrimidin-5-yl)-4-ethoxybenzenesulfonyl]-3,5-dimethylpiperazine] | 303.9 | 251.4 | 253.8 | 274.1 | 287.2 | 312.0 | 321.3 | 341.9 | 345.0 | 7 (7×) and 5 (3×) and 6 (7×) and 8 (6×) and 9 (4×) and 10 (2×) | 8.93 |  |  |  |  |  |  | significant improvement | 31.5 | 17.0 ± 6.7

From patent US20250041309A1 (ZHENAO JINYINHUA PHARMACEUTICAL, priority 2021, published 2025)
